Test results from article PMC9211397, “High-Throughput Screening Platform To Identify Inhibitors of Protein Synthesis with Potential for the Treatment of Malaria” (Antimicrobial Agents and Chemotherapy, 2022).
Where “and” joins values, the source holds several entries; their conditions need not be identical. Equal entries are not always repeated. Where two headings read alike, the source gives them in different places.

How the values were obtained:
[1] = biological target: P. falciparum translation (P. falciparum lysate); assay: P. falciparum in vitro translation (PfIVT) assay, lysate-based, luciferase reporter; assay type: biochemical, Plasmodium falciparum; details: for IC50: 8-point, weighted mean ± SD of two technical replicates, read-out: IC50 value (μM) PfIVT; for PfIVT inhibition at 30 μM (%): single-point screen
Source text: (§1) Our P. falciparum in vitro translation (PfIVT) assay is built upon previously established assays ([14], [17]) and is summarized in Fig. 1A. In this assay, successful reconstitution of Plasmodium protein translation is reported via synthesis of a luciferase reporter. For PfIVT, two independent untranslated regions (UTRs), previously shown to promote strong levels of translation ([17]), were introduced upstream and downstream of the luciferase. The 5′ UTR from P. falciparum histidine-rich protein 3 (PfHrp3) ([18]) was introduced upstream of the reporter gene, and the 3′ UTR from P. falciparum histidine-rich protein 2 (PfHrp2) gene ([19]) was introduced downstream. For the reporter construct to support our complementary human IVT assay (HsIVT), the 5′ UTR was replaced with an internal ribosome entry site (IRES) from encephalomyocarditis virus (EMCV) ([20]) and the 3′ UTR was replaced with a poly(A) tail ([21]). […] Finally, a 30-bp poly(A) tail, present within the vector and downstream of the luciferase gene, was inserted to enhance mRNA stability ([21]).
(§2) Translationally active P. falciparum or human embryonic kidney (HEK) 293F lysates were supplemented with accessory, helper, amino acid, and energy regeneration solutions (see Materials and Methods for details). In vitro translation reactions were initiated by the addition of purified mRNA to each reaction well. Using this basic assay format, a number of parameters were assessed and optimized, namely, assay temperature, time, mRNA concentration, and reaction volume (summarized in Fig. S2 in the supplemental material). In addition, we compared the luminescence signal of the CBG firefly luciferase with CBG99, derived from the click beetle […] ([18]).
3D7 parasites were synchronized following two rounds of treatment with D-sorbitol (5%), as previously described ([40]). The hematocrit was reduced from 5% (for standard culture) to 1.5 to 2% and cultures were transferred into HYPERflasks (Corning). Fresh medium was added once or twice daily. […] Harvested red blood cells (infected) were lysed by incubation in 0.1% (wt/vol) saponin on ice for 10 min with gentle agitation. Free parasites were harvested by centrifugation (2,800 × g, 10 min, 4°C) and washed 3 times in wash buffer (WB; 100 mM potassium acetate, 2.5 mM magnesium acetate, 45 mM HEPES [pH 7.4], 250 mM sucrose, 2 mM dithiothreitol, and 15 μM leupeptin) to remove lysed red blood cell debris. The resulting pellet was resuspended in 1 volume of WB supplemented with cOmplete EDTA-free protease inhibitor cocktail (Roche; 1 tablet/20 mL) and human RNase A inhibitor (Sigma; 5 U/mL). Parasite lysis was achieved by nitrogen cavitation using a prechilled 45-mL Parr cell disruption vessel (1,500 lb/in^2, 60 min, 4°C). To clarify the lysate, it was centrifuged (10,000 × g, 15 min, 4°C), and the supernatant was collected, transferred into fresh tubes, and centrifuged (30,000 × g, 15 min, 4°C). As a quality assurance step for each lysate, the RNA content of the resulting supernatant was determined using a NanoDrop spectrophotometer (Shimadzu). Supernatants with RNA levels of >250 ng/μL were aliquoted (100 μL), flash frozen in liquid nitrogen, and stored at −80°C.

[2] = biological target: human translation (HEK 293F lysate); assay: Human in vitro translation (HsIVT) assay, HEK 293F lysate, luciferase reporter; assay type: biochemical; details: weighted mean ± SD of two technical replicates, read-out: IC50 value (μM) HsIVT
Source text: as §1, §2
FreeStyle human embryonic kidney (HEK) 293F cells (Thermo Fisher Scientific) were grown in 500-mL polycarbonate Erlenmeyer vented flasks (Corning) containing FreeStyle 293 expression medium (Life Technologies) upon reaching a density of approximately 2 × 10^6. Cells were then centrifuged at 1,000 × g for 10 min at 4°C, the medium was discarded, and the resulting pellet was washed once in buffer II containing 20 U of human placental RNase inhibitor (Sigma-Aldrich) and cOmplete EDTA-free inhibitor cocktail (Roche) before being centrifuged at 2,800 × g for 10 min. Clarified HEK cell lysate was obtained in the same way as described for P. falciparum lysate.
PfIVT and HsIVT reactions (5 μL final volume) were performed in 384-well plates (Corning) containing 50% lysate from cells (either P. falciparum or HEK 293F), 10% amino acid solution (final concentration of 400 μM for each amino acid in 60 mM KOH; biotechrabbit), 10% energy recovery solution (final assay concentrations of 40 mM HEPES [pH 7.4], 1.5 mM ATP, 0.15 mM GTP, […] creatine phosphate, and 40 U/mL creatine phosphokinase), 10% helper solution (final assay concentrations of 200 μM cystine, 2% polyethylene glycol 3000 [PEG 3000], 1 mM spermidine, 0.5 mM folinic acid, and 15 μM leupeptin), 10% supplemental salt solution (22.5 mM HEPES [pH 7.4], 50 mM potassium acetate, 1 mM magnesium acetate, 1 mM DTT, 1 U/mL human placental RNase inhibitor, 0.1 mM leupeptin), and 10% cbg99 luciferase mRNA (3,000 ng/mL). A master mix solution containing all components was prepared on ice prior to assays, and 5 μL was dispensed into wells using an automated Integra VIAFLO 16-channel 12.5-μL pipette.

CBG99 luciferase = CBG99 luciferase (Pyrophorus plagiophthalamus, UniProt Q7M4K1); assay: Luciferase counterscreen (false-positive counterscreen); assay type: biochemical, click beetle
Method: Hits identified in our primary assay screen were assessed for their potential to interfere with the cbg99 luciferase reporter. For this counterscreen, the master mix containing all the components required for translation (as described above) was incubated for 210 min at 32°C, resulting in the in vitro translation of cbg99 luciferase. The produced luciferase was then incubated with test compounds for 5 min prior to the addition of luciferase reaction buffer. […] Hits from the primary screen were assessed as luciferase inhibitors in 8-point dose-dependent assays ranging from 30 μM to 13.7 nM (1:3 dilutions). Levels of luciferase inhibition were determined relative to the positive control.

[3] = Pathogen Box hits; weighted mean ± SD of two technical replicates; read-out: IC50 value (μM) Counterscreen
[4] = Pandemic Box hits; weighted mean ± SD of two technical replicates; read-out: IC50 value (μM) Counterscreen

CBG99 luciferase, sequence (Q7M4K1 entry or part of it): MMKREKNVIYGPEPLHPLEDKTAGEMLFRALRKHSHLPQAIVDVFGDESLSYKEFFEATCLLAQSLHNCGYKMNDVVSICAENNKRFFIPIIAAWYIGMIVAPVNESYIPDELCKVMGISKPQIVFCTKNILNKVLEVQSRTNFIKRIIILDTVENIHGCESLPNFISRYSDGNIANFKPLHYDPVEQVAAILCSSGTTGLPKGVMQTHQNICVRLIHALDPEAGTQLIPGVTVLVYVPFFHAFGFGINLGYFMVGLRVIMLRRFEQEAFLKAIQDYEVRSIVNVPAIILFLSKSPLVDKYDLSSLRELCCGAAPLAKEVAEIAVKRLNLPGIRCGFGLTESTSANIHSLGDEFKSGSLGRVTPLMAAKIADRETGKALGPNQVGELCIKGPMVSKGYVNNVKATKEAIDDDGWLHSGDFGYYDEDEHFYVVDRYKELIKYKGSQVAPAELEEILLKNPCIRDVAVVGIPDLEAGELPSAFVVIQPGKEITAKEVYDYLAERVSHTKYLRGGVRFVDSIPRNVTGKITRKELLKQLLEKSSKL

SMILES | IC50 ([1]; Pathogen Box hits) [µM] | PfIVT inhibition at 30 μM (%) ([1]; Pathogen Box) | IC50 ([2]; Pathogen Box hits) [µM] | IC50 (CBG99 luciferase; [3]) [µM] | IC50 ([1]; Pandemic Box hits) | PfIVT inhibition at 30 μM (%) ([1]; Pandemic Box) | IC50 ([2]; Pandemic Box hits) [µM] | IC50 (CBG99 luciferase; [4]) [µM] | activity against PfIVT at 100 μM [1] | IC50 (CBG99 luciferase; read-out: IC50 value (μM) Counterscreen; Pandemic Box hits; weighted mean ± SD of two technical replicates) [µM] | IC50 (CBG99 luciferase; read-out: IC50 value (μM) Counterscreen; Pathogen Box hits; weighted mean ± SD of two technical replicates) [µM]
Cc1c[nH]c(CCNC(=O)c2cc(-c3ccc(Cl)cc3)cs2)n1 [MMV676350] | 16 ± 0.8 | 65.1 | 6.7 ± 0.13 | > 30 |  |  |  |  |  |  | 
COc1ccc2nc(C)cc(OCC(=O)Nc3ccccc3OC)c2c1 [MMV687188] |  | 64.9 | > 30 | > 30 |  |  |  |  |  |  | 
Cn1cc(NC(=O)c2cc(NC(=O)c3ccc(/C=C/c4cnc5ccccc5c4)cc3)cn2C)cc1C(=O)NCCN1CCOCC1 [MMV1634391] |  |  |  |  | 17 ± 0.6 µM | 52.4 | 1.1 ± 0.01 | > 30 |  |  | 
COc1cc(C2=NCCN2)ccc1-n1cc(-c2cccc(C3=NCCN3)c2)nn1 [MMV688474] | 16 ± 0.9 | 78.4 | 14 ± 0.07 | > 30 |  |  |  |  |  |  | 
CC(Cc1ccccc1)C(=O)Nc1ccc(Cl)cc1C(=O)O (stereo not drawn) [MMV1579781] |  |  |  |  | 8.1 ± 0.09 µM | 72.4 | > 30 | 0.5 ± 0.08 |  |  | 
O=C(Nc1nc(-c2ccccn2)cs1)c1cncn1-c1ccccc1 [MMV676512] | > 30 | 54.2 | 22 ± 0.46 | > 30 |  |  |  |  |  |  | 
O=C(Nc1nnc(-c2ccccc2)o1)c1ccc(F)cc1 [MMV1578578] |  |  |  |  | 3.7 ± 0.07 µM | 74.6 | 10 ± 0.12 | 1.3 ± 0.08 |  |  | 
NC[C@H]1O[C@H](O[C@H]2[C@H](O)[C@@H](O[C@H]3O[C@H](CO)[C@@H](O)[C@H](N)[C@H]3O)[C@H](N)C[C@@H]2N)[C@H](N)C[C@@H]1O [MMV002459] |  |  |  |  | 29 µM and > 30 µM | 87.3 | 22 ± 0.3 | > 30 |  |  | 
N=C(N)Nc1ccc(-c2ccc(-c3ccc(N=C(N)N)c(Cl)c3)o2)cc1Cl [MMV688271] | 18 ± 0.9 | 65.7 | 13 ± 0.16 | > 30 |  |  |  |  |  |  | 
CCC[C@@H]1C[C@@H](C(=O)N[C@@H]([C@H]2O[C@H](SC)[C@H](O)[C@@H](O)[C@H]2O)[C@H](C)Cl)N(C)C1 [clindamycin, reference compound] |  |  |  |  |  |  |  |  | not active |  | 
Cc1ccc(C(=O)Nc2ccc(S(=O)(=O)O)c3cc(S(=O)(=O)O)cc(S(=O)(=O)O)c23)cc1NC(=O)c1cccc(NC(=O)Nc2cccc(C(=O)Nc3cc(C(=O)Nc4ccc(S(=O)(=O)O)c5cc(S(=O)(=O)O)cc(S(=O)(=O)O)c45)ccc3C)c2)c1 [MMV637953] | 3.1 ± 0.07 | 78.7 | > 30 | > 30 |  |  |  |  |  |  | 
CC(C)Nc1ncnc2c1cnn2-c1ccc(Cl)cc1 [MMV108465] |  |  |  |  | 17 ± 0.8 µM | 62.6 | 23 ± 0.11 | 7.6 ± 0.5 |  |  | 
CC(=O)Oc1ccccc1C(=O)Nc1ncc([N+](=O)[O-])s1 [MMV688991, nitazoxanide, reference compound] | 0.02 ± 0.008 | 97.0 | 0.04 ± 0.0003 |  | 0.02 ± 0.007 µM | 98.3 | 0.04 ± 0.0003 |  |  | 0.04 ± 0.008 | 0.02 ± 0.008
Cc1oncc1C(=O)Nc1ccc(C(F)(F)F)cc1 [MMV003291] |  |  |  |  | 2 ± 0.07 µM | 52.9 | > 30 | 0.5 ± 0.08 |  |  | 
CCCCOC(=O)Nc1cc2[nH]c(C3CCCCC3)nc2cc1N1CCCC1 [MMV687730] | 3.9 ± 0.8 | 72.4 | > 30 | > 30 |  |  |  |  |  |  | 
NC(=O)c1cc(Br)ccc1OCCOc1ccccc1 [MMV687243] | 2.2 ± 0.08 | 82.5 | 13 ± 0.2 | 0.9 ± 0.09 |  |  |  |  |  |  | 
C[C@H]1c2cccc(O)c2C(=O)C2=C(O)[C@]3(O)C(=O)C(C(N)=O)=C(O)[C@@H](N(C)C)[C@@H]3[C@@H](O)[C@@H]21 [doxycycline, reference compound] |  |  |  |  |  |  |  |  | not active |  | 
COc1ccc(C(=N)N)cc1-c1cn(-c2ccc(C(=N)N)cc2)nn1 [MMV675998] | 13 ± 0.9 | 68.9 | 18 ± 0.13 | > 30 |  |  |  |  |  |  | 
COc1ccc(C2=NCCN2)cc1-c1cn(-c2cccc(C3=NCCN3)c2)nn1 [MMV688547] | 1.8 ± 0.07 | 96.7 | 2.7 ± 0.02 | > 30 |  |  |  |  |  |  | 
CCOc1ccc(C(=O)NCCc2ccccc2)cc1 [MMV124656] |  |  |  |  | 14 ± 0.9 µM | 72.6 | 17 ± 0.16 | 3.8 ± 0.08 |  |  | 
Clc1cccc(-c2nnc(-c3ccccc3)o2)c1 [MMV141011] |  |  |  |  | > 30 µM | 51.8 | > 30 | 10 ± 0.8 |  |  | 
